Measured values reported in patent publication US20020058048A1, “TOPICAL CAPSAICIN PREPARATION” (priority 1998, published 2002).
Values joined by “and” are separate entries in the source; they are usually repeats but may differ in a detail not shown here. Identical values can stand only once.

Tests used:
[1] = tested on: cornea of rats; assay: Eye-wiping reflex caused by capsaicin applied to the cornea (eye-wiping method of Jancso); format: in vivo, rat; conditions: for Number of wiping, Second: challenge with 0.1% capsaicin solution without surfactant 2 hours after pretreatment with 0.1% capsaicin
Excerpt: 2. The effect of polyoxyethylene (60) hydrogenated castor oil on the eye-wiping reflex caused by capsaicin and the desensitization to chemical stimuli was studied according to the eye-wiping method reported by Jancso N. et al., in “Direct evidence for neurogenic inflammation and its prevention by denervation and by pretreatment with capsaicin”, Br. J. Phamac. Chemother. 31: 138-151, 1967.
When one drop of 0.1% capsaicin solution was applied to the cornea of rats, the animal immediately began to wipe the cornea with front paws and continued the wiping for about 1 minute.
See, Table 2. […] See, Table 3.
4. The effect of various surfactants on the desensitization of sensory nerves by 0.1% capsaicin was evaluated using the procedure of Test 2.

[2] = tested on: hind-limb of rats; assay: Withdrawal latency to thermal stimuli (42° C. water bath) of hind-limb in rats during sensitization by capsaicin; format: in vivo, rat; conditions: 0.1% capsaicin solution; for Withdrawal latency time, One hour after appln.: 42° C. water bath; for Withdrawal latency time, Before appln.: baseline before application
Method: 1. 0.1% capsaicin solutions containing varying amount of polyoxyethylene (60) hydrogenated castor oil were prepared by dissolving 0.1 g of capsaicin and 0, 3, 9 or 18g of the surfactant in 26.4 ml of ethanol and then diluting with distilled water q.s. to make a total volume of 100 ml.
Each of 0.1% capsaicin solution thus prepared was applied to the hind-limb of rats. One hour after the application, the limb was placed in a water bath warmed at 42° C. and the length of time (in seconds) elapsed until when the rat withdrew the treated limb from the water bath was determined. […]

[3] = polyoxyethylene (60) hydrogenated castor oil 0%
[4] = polyoxyethylene (60) hydrogenated castor oil 3%
[5] = polyoxyethylene (60) hydrogenated castor oil 9%
[6] = polyoxyethylene (60) hydrogenated castor oil 18%

COc1cc(CNC(=O)CCCC/C=C/C(C)C)ccc1O [capsaicin]
Number of wiping, Second ([1]; surfactant 0%): significantly reduced and 9.7 ± 1.6 | Number of wiping, Second ([1]; surfactant 3%): significantly reduced and 11.5 ± 0.9 | Number of wiping, Second ([1]; surfactant 9%): significantly reduced and 13 ± 0.7 | Number of wiping, Second ([1]; surfactant 18%): significantly reduced and 11.7 ± 0.6 | Duration of wiping of the cornea with front paws ([1]; one drop applied to the cornea of rats): about 1 minute | Number of wiping, First ([1]; pretreatment drop of 0.1% capsaicin solution with surfactant 0%): 21.5 ± 1.6 | Number of wiping, First ([1]; pretreatment drop of 0.1% capsaicin solution with surfactant 3%): not virtually affected and 24 ± 2.1 | Number of wiping, First ([1]; pretreatment drop of 0.1% capsaicin solution with surfactant 9%): not virtually affected and 23.5 ± 1.1 | Number of wiping, First ([1]; pretreatment drop of 0.1% capsaicin solution with surfactant 18%): not virtually affected and 22 ± 1.4 | Withdrawal latency time, One hour after appln. [2, 3]: remarkably shortened and 2.45 ± 0.32 sec. | Withdrawal latency time, Before appln. [2, 3]: 30 ± 0 s | Withdrawal latency time, One hour after appln. [2, 4]: slightly shortened and 20.29 ± 4.18 sec. | Withdrawal latency time, Before appln. [2, 4]: 30 ± 0 s | Withdrawal latency time, One hour after appln. [2, 5]: not affected significantly and 30 ± 0 sec. | Withdrawal latency time, Before appln. [2, 5]: 30 ± 0 s | Withdrawal latency time, One hour after appln. [2, 6]: not affected significantly and 27.28 ± 2.35 sec. | Withdrawal latency time, Before appln. [2, 6]: 30 ± 0 s
